Measurements published in US20160100579A1, “NEMATICIDAL N-(2-SUBSTITUTED 2-PHENYLETHYL)CARBOXAMIDES AND N-(2-SUBSTITUTED 2-PHENYLETHYL)-THIOCARBOXAMIDES” (priority 2013, published 2016).
Where two headings read alike, the source gives them in different places.

Columns and labels:
Cooperia curticei = type: in vivo; details: after 5 days, 100% = all larvae killed
Protocol: Cooperia curticei—Test (COOPCU)
(§1) Solvent: dimethyl sulfoxide
(§2) To produce a suitable preparation of active compound, 10 mg of active compound are dissolved in 0.5 ml solvent, and the concentrate is diluted with “Ringer's solution” to the desired concentration.
Approximately 40 nematode larvae (Cooperia curticei) are transferred into a test tube containing the compound solution.
After 5 days percentage of larval mortality is recorded. 100% efficacy means all larvae are killed; 0% efficacy means no larvae are killed.

Haemonchus contortus = Haemonchus contortus - Test (HAEMCO); type: in vivo; details: after 5 days, 100% = all larvae killed
Protocol: Haemonchus contortus—Test (HAEMCO)
as §1, §2
Approximately 40 larvae of the red stomach worm (Haemonchus contortus) are transferred into a test tube containing compound solution.
After 5 days percentage of larval mortality is recorded. 100% efficacy means all larvae are killed, 0% efficacy means no larvae are killed.

[1] = Measurement of log P values by HPLC on reversed phase columns (EEC directive 79/831 Annex V.A8; methods [a] pH 2.3, [b] pH 2.7, [c] pH 7.8); type: physicochemical; details: for chromatographic logP: reversed phase HPLC column
Protocol: Measurement of log P-values:
Measurement of log P values was performed according EEC directive 79/831 Annex V.A8 by HPLC (High Performance Liquid Chromatography) on reversed phase columns with the following methods:
^[a] Measurement was done at pH 2.3 with 0.1% phosphoric acid and acetonitrile as eluent with a linear gradient from 10% acetonitrile to 95% acetonitrile.
^[b] measurement of LC-MS was done at pH 2.7 with 0.1% formic acid in water and with acetonitrile (contains 0.1% formic acid) as eluent with a linear gradient from 10% acetonitrile to 95% acetonitrile.
^[c] Measurement with LC-MS was done at pH 7.8 with 0.001 molar ammonium hydrogen carbonate solution in water as eluent with a linear gradient from 10% acetonitrile to 95% acetonitrile.
Calibration was done with not branched alkan2-ones (with 3 to 16 carbon atoms) with known log P-values (measurement of log P values using retention times with linear interpolation between successive alkanones).. lambda-maX-values were determined using UV-spectra from 200 nm to 400 nm and the peak values of the chromatographic signals.

Meloidogyne incognita = Meloidogyne incognita - test (MELGIN); type: in vivo; details: 20 ppm; salad seedlings in sand; after 14 days; 100% = no galls found
Protocol: Meloidogyne incognita—test (MELGIN)
Solvent: 125.0 parts by weight of acetone
To produce a suitable preparation of active compound, 1 part by weight of active compound is mixed with the stated amount of solvent, and the concentrate is diluted with water to the desired concentration.
Vessels are filled with sand, a solution of the active ingredient, a suspension containing eggs and larvae of the southern root-knot nematode (Meloidogyne incognita) and salad seeds. The salad seeds germinate and the seedlings grow. Galls develop in the roots.
After 14 days the nematicidal activity is determined on the basis of the percentage of gall formation. 100% means that no galls were found; 0% means the number of galls found on the roots of the treated plants was equal to that in untreated control plants.

[2] = method [a]: HPLC, pH 2.3, 0.1% phosphoric acid / acetonitrile
[3] = method [b]: LC-MS, pH 2.7, 0.1% formic acid in water / acetonitrile
[4] = method [c]: LC-MS, pH 7.8, 0.001 molar ammonium hydrogen carbonate / acetonitrile
[5] = method [b]: LC-MS at pH 2.7, 0.1% formic acid in water / acetonitrile
[6] = method [c]: LC-MS at pH 7.8, 0.001 molar ammonium hydrogen carbonate in water / acetonitrile

| SMILES | activity (efficacy: larval mortality) (Cooperia curticei; 20 ppm) | nematicidal activity (percentage of gall formation) (Meloidogyne incognita) | log P [1, 5] | log P [1, 6] | also measured |
| --- | --- | --- | --- | --- | --- |
| C=CCOC(CNC(=O)c1sccc1C)c1ccc(Cl)cc1 (stereo not drawn) [Compound 2] | 100% |  |  |  | activity (efficacy: larval mortality) (Haemonchus contortus; 20 ppm): 90% |
| Cc1ccsc1C(=O)NCC(OCC1CC1)c1ccc(Cl)cc1 (stereo not drawn) [Compound 6] |  |  |  |  | logP [1, 2]: 3.87^[a]; activity (efficacy: larval mortality) (Cooperia curticei; 100 ppm): 90% |
| C=CCOC(CNC(=O)c1cccnc1Cl)c1ccc(Cl)cc1 (stereo not drawn) [Compound 8] | 80% |  |  |  |  |
| COC(c1ccc(Cl)cc1Cl)C(C)NC(=O)c1cn(C)nc1C(F)F (stereo not drawn) [Compound 12] |  | 100% |  |  | activity (efficacy: larval mortality) (Haemonchus contortus; 100 ppm): 90% |
| COC(CNC(=O)c1cn(C)nc1C(F)F)c1cc(Cl)cc(Cl)c1 (stereo not drawn) [Compound 25] |  | 90% |  |  |  |
| COC(c1ccc(Cl)cc1Cl)C(C)NC(=O)c1ccccc1Cl (stereo not drawn) [Compound 30] |  | 100% |  |  | activity (efficacy: larval mortality) (Haemonchus contortus; 100 ppm): 100% |
| COC(c1ccc(Cl)cc1Cl)C(C)NC(=O)c1ccccc1C(F)(F)F (stereo not drawn) [Compound 35] |  | 90% |  |  | logP [1, 2]: 3.90^[a]; activity (efficacy: larval mortality) (Haemonchus contortus; 100 ppm): 100% |
| COC(c1ccc(Cl)cc1Cl)C(C)NC(=O)c1cccnc1C(F)(F)F (stereo not drawn) [Compound 39] |  | 90% |  |  | activity (efficacy: larval mortality) (Haemonchus contortus; 100 ppm): 100% |
| COC(c1ccc(Cl)cc1)C(C)NC(=O)c1ccoc1I (stereo not drawn) [Compound 64] | 80% |  |  |  | logP [1, 3]: 3.28^[b]; activity (efficacy: larval mortality) (Haemonchus contortus; 20 ppm): 100% |
| COC(c1ccc(Cl)cc1)C(C)NC(=O)c1sccc1Br (stereo not drawn) [Compound 65] |  |  |  |  | logP [1, 3]: 3.89^[b]; logP [1, 4]: 3.83^[c];; activity (efficacy: larval mortality) (Cooperia curticei; 100 ppm): 80%; activity (efficacy: larval mortality) (Haemonchus contortus; 100 ppm): 100% |
| COC(CNC(=O)c1sccc1Cl)c1ccc(Cl)cc1 (stereo not drawn) [Compound 69] |  |  |  |  | logP [1, 3]: 3.41^[b]; logP [1, 4]: 3.39^[c];; activity (efficacy: larval mortality) (Cooperia curticei; 100 ppm): 90%; activity (efficacy: larval mortality) (Haemonchus contortus; 100 ppm): 90% |
| COC(c1ccc(Cl)cc1Cl)C(C)NC(=O)c1nccnc1C(F)(F)F (stereo not drawn) [Compound 73] | 90% | 100% |  |  | activity (efficacy: larval mortality) (Haemonchus contortus; 20 ppm): 100% |
| CCC(NC(=O)c1nccnc1C(F)(F)F)C(OC)c1ccc(Cl)cc1Cl (stereo not drawn) [Compound 92] | 90% | 90% |  |  | logP [1, 3]: 3.99^[b] |
| COC(c1ccc(Cl)cc1Cl)C1(NC(=O)c2nccnc2C(F)(F)F)CC1 (stereo not drawn) [Compound 99] | 100% |  |  |  | logP [1, 3]: 3.61^[b] |
| COC(c1ccc(Cl)cc1Cl)C1(NC(=O)c2cccnc2C(F)(F)F)CC1 (stereo not drawn) [Compound 100] |  | 90% |  |  | logP [1, 3]: 3.37^[b] |
| COC(CNC(=O)c1cccnc1C(F)(F)F)c1ccc(Cl)cc1Cl (stereo not drawn) [Compound 104] |  | 90% |  |  | logP [1, 3]: 3.11^[b] |
| CCOC(c1ccc(Cl)cc1Cl)C(C)NC(=O)c1cccnc1C(F)F (stereo not drawn) [Compound 105] |  | 90% |  |  | logP [1, 3]: 3.57^[b] |
| CCOC(c1ccc(Cl)cc1Cl)C(C)NC(=O)c1cccnc1Cl (stereo not drawn) [Compound 106] |  | 90% |  |  | logP [1, 3]: 3.59^[b] |
| CCOC(c1ccc(Cl)cc1Cl)C(C)NC(=O)c1nccnc1C(F)(F)F (stereo not drawn) [Compound 107] | 100% | 100% |  |  | logP [1, 3]: 4.16^[b] |
| CCOC(c1ccc(Cl)cc1Cl)C(C)NC(=O)c1cccnc1C(F)(F)F (stereo not drawn) [Compound 108] |  | 100% |  |  | logP [1, 3]: 3.92^[b] |

| SMILES | activity (efficacy: larval mortality) (Cooperia curticei; 20 ppm) | nematicidal activity (percentage of gall formation) (Meloidogyne incognita) | log P [1, 5] | log P [1, 6] | also measured |
| --- | --- | --- | --- | --- | --- |
| COC(c1ccc(Cl)cc1)C(C)NC(=O)c1ccccc1C(F)(F)F (stereo not drawn) [Compound 128] | 80% |  | 3.45^[b] | 3.35^[c]; | activity (efficacy: larval mortality) (Haemonchus contortus; 20 ppm): 90% |
| COC(c1ccc(Cl)cc1)C(C)NC(=O)c1ccccc1C (stereo not drawn) [Compound 129] |  |  | 3.30^[b] | 3.20^[c]; | activity (efficacy: larval mortality) (Haemonchus contortus; 20 ppm): 80% |
| COC(c1ccc(Cl)cc1)C(C)NC(=O)c1ccccc1Cl (stereo not drawn) [Compound 130] | 80% |  |  | 3.21^[c] | activity (efficacy: larval mortality) (Haemonchus contortus; 20 ppm): 80% |
| COC(c1ccc(Cl)cc1)C(C)NC(=O)c1ccccc1Br (stereo not drawn) [Compound 131] |  |  | 3.29^[b] | 3.30^[c]; | activity (efficacy: larval mortality) (Haemonchus contortus; 20 ppm): 90% |
| COC(c1ccc(Cl)cc1)C(C)NC(=O)c1ccccc1C(F)F (stereo not drawn) [Compound 136] |  |  | 3.46^[b] | 3.42^[c]; | activity (efficacy: larval mortality) (Haemonchus contortus; 20 ppm): 80% |
| COC(c1ccccc1Cl)C(C)NC(=O)c1ccccc1C(F)F (stereo not drawn) [Compound 140] |  | 90% | 3.42^[b] | 3.39^[c]; |  |
| COC(c1ccccc1Cl)C(C)NC(=O)c1c(F)cccc1C(F)(F)F (stereo not drawn) [Compound 141] |  | 90% | 3.52^[b] | 3.50^[c]; |  |
| COC(c1ccccc1Cl)C(C)NC(=O)c1ccccc1Br (stereo not drawn) [Compound 142] |  | 90% | 3.34^[b] | 3.31^[c]; |  |
| COC(c1ccccc1Cl)C(C)NC(=O)c1cccnc1Cl (stereo not drawn) [Compound 143] |  | 90% | 2.55^[b] | 2.53^[c]; |  |
| COC(c1ccccc1Cl)C(C)NC(=O)c1c(F)cccc1F (stereo not drawn) [Compound 144] |  | 90% | 3.11^[b] | 3.08^[c]; |  |
| COC(c1ccccc1Cl)C(C)NC(=O)c1ccccc1Cl (stereo not drawn) [Compound 156] |  | 90% | 3.74^[b] | 3.26^[c]; |  |
| COC(c1ccc(F)cc1)C(C)NC(=O)c1ccccc1Cl (stereo not drawn) [Compound 191] |  | 90% | 3.02^[b] | 2.95^[c]; |  |
| CCOC(c1ccc(Cl)cc1Cl)C(C)NC(=O)c1ccccc1C(F)(F)F (stereo not drawn) [Compound 194] |  | 90% | 4.50[b] | 4.44^[c]; |  |
| CCOC(c1ccc(Cl)cc1Cl)C(C)NC(=O)c1ccccc1[N+](=O)[O-] (stereo not drawn) [Compound 202] | 100% | 90% | 3.83^[b] | 3.80^[c]; | activity (efficacy: larval mortality) (Haemonchus contortus; 20 ppm): 80% |
| COC(c1ccccc1Cl)C(C)NC(=O)c1ccsc1I (stereo not drawn) [Compound 203] | 80% |  | 3.53^[b] | 3.53^[c]; | activity (efficacy: larval mortality) (Haemonchus contortus; 20 ppm): 80% |
| CCOC(c1ccc(Cl)cc1Cl)C(C)NC(=O)c1ccsc1I (stereo not drawn) [Compound 205] | 100% |  | 4.63^[b] | 4.60^[c]; | activity (efficacy: larval mortality) (Haemonchus contortus; 20 ppm): 90% |
| COC(c1ccccc1Cl)C(C)NC(=O)c1nccnc1C(F)(F)F (stereo not drawn) [Compound 208] | 80% | 90% | 3.11^[b] | 3.10^[c]; |  |
| COC(c1ccccc1Cl)C(C)NC(=O)c1cccnc1C(F)(F)F (stereo not drawn) [Compound 209] | 90% |  | 3.27^[b] | 3.24^[c]; |  |
| COC(c1ccc(Cl)cc1Cl)C1(NC(=O)c2nccnc2Cl)CC1 (stereo not drawn) [Compound 210, 3-chloro-N-{1-[(2,4-dichlorophenyl)(methoxy)methyl]cyclopropyl}pyrazine-2-carboxamide] |  | 100% |  |  | chromatographic logP ([1]; acid HPLC method, reversed phase, read-out: Log P acid): 3.24; chromatographic logP ([1]; method [b]: LC-MS at pH 2.7, 0.1% formic acid in water / acetonitrile, read-out: log P): 3.24; chromatographic logP ([1]; method [c]: LC-MS at pH 7.8, 0.001 molar ammonium hydrogen carbonate in water / acetonitrile, read-out: log P): 3.19 |
| COC(c1ccccc1Cl)C(C)NC(=O)c1nccnc1Cl (stereo not drawn) [Compound 213] |  | 100% | 2.76^[b] | 2.73^[c]; |  |
